Here are results for three substances from article doi:10.1101/2025.02.17.637997, “Phosphorylation-State Modulated Binding of HSP70: Structural Insights and Compensatory Protein Engineering” (bioRxiv, 2025).

Assay [1] concerns the target CHIP TPR-CC (Homo sapiens, UniProt Q9UNE7). Briefly: Fluorescence polarization, CHIP TPR-CC fragment. The assay is classed as binding. To be noted: FP; Fig. 2C. The source says:
(§1) A complete list of vectors is listed in Table S1 and deposited at Addgene (pending ID). Plasmids were maintained and propagated in DH5-alpha E. coli and purified using the Miniprep plasmid kit (Qiagen) or Quantum Prep® Plasmid Midiprep Kit (Bio-Rad). We used the Q5 Site-Directed Mutagenesis Kit (NEB) or […] II XL (NC9045762, Agilent Technologies) site-directed mutagenesis kit for editing plasmids and validated via DNA sequencing. Lifetein or Genscript synthesized the peptides used in the study. […] The amino-terminal biotin-labeled HSP70 tail peptide (biotin-[…], termed as biotin-EEVD) and the amino-terminal biotin-labeled pT-HSP70 tail peptide (biotin-GSGSGP(pT)IEEVD, termed as biotin-pEEVD) were purchased (Lifetein). The peptides used for fluorescent polarization were N-FITC-Ahx-[…] (EEVD) or N-FITC-Ahx-GSGP(pT)IEEVD (pEEVD). Recombinant CHIP-TPR constructs were recombinantly expressed using the pHis//2 CHIP-TPR (21–154) plasmid and purified as previously described ([21]) and additional CHIP proteins were purified as previously described ([22]).
(§2) The N-terminally-labelled peptides were loaded into PCR reaction tubes at 2X (40 nM), with the final concentration being 20 nM. Recombinant CHIP constructs were added into the tubes at the indicated concentrations. […] The polarization reads were normalized to the dilution buffer. […]

Assay [2] relates to CHIP TPR-UBOX. Description: Fluorescence polarization, CHIP TPR-UBOX (CC deletion). The assay is classed as binding. To be noted: FP; Fig. 2C.
From the text: as §1, §2

For assay [3], the system named is SmBiT-CHIP-G132N. Briefly: NanoBiT live-cell interaction, HEK-293, SmBiT-CHIP-G132N. The assay is classed as cell-based. To be noted: HEK-293, CHIP-G132N, three independent transfections, p = 0.2114 vs. Δ with CHIP-WT, Fig. 1E. On the procedure: (§3) HEK293 and COS-7 cells were acquired from the UNC Lineberger Comprehensive Cancer Center Tissue Culture Facility. Cultures were maintained in Dulbecco’s Modified Eagle Medium with 10% fetal bovine serum at 37 °C and 5% CO2. Using the manufacturers’ instructions, X-tremeGENE 9 was used to transfect cells with plasmid DNA except for NanoBiT constructs, in which case we used Lipofectamine 3000 (Thermo Fisher Scientific). Where indicated, twenty-four hours post-transfection, cells were treated with 20 μM MG-132 (Selleck Chemicals) for 6 h or 100 μM cycloheximide (Sigma-Aldrich) for the stated duration.
(§4) NanoBiT Protein: Protein Interaction System (Promega) was used to measure protein-protein interaction data following the manufacturer’s instructions. As previously described, LgBiT-HSP70 and SmBiT-CHIP construct interactions were used as positive controls ([22]). Twenty-four hours post-transfection, the cells were collected, replated in 96-well clear bottom white-sided tissue culture plates, and maintained at 37 °C and 5% CO2 for 45 min. Nano-Glo Live Cell Reagent (Promega) was added, and luminescence was measured using a CLARIOstar microplate reader over 20 minutes. The total area under the maximum luminescence curve was quantified and used to compare changes in HSP70-CHIP interactions relative to the WT-WT conditions.

In assay [4] the test system is HSP70 steady-state levels in HEK-293 cells. Briefly: Cycloheximide chase of HSP70 steady-state levels, HEK-293. In kind it is cell-based. To be noted: Flag immunoblot, representative, Fig. S1. On the procedure: as §3
(§5) Samples were collected in a lysis buffer composed of 50 mM Tris-HCl (pH 7.4), 150 mM NaCl, 2 mM EDTA, and 1% Triton X-100, supplemented with 1X Halt protease and phosphatase inhibitor (Thermo Scientific). The samples were then sonicated and combined with Laemmli sample buffer (Bio-Rad). The lysates were resolved on 4–15% TGX Stain-Free gels (Bio-Rad) and transferred to PVDF membranes (Bio-Rad). The membranes were blocked in 5% milk and incubated with primary antibodies (Table S3) overnight at 4°C. Following this, HRP-conjugated secondary antibodies (Cell Signaling Technology) were applied. Detection was performed using Lumigen ECL Ultra (Lumigen, tma-100), and the blots were imaged with the ChemiDoc Imaging System (BioRad).

For assay [5], the system named is HSP70 steady-state levels in COS-7 cells. Briefly: Cycloheximide chase of HSP70 steady-state levels, COS-7. The assay is classed as cell-based. As to the method: as §3, §5
Assay [6] has as its target T1, CHIP-WT (Homo sapiens, UniProt Q9UNE7).
T1 construct: His; made in house
T1 sequence (Q9UNE7 1-303): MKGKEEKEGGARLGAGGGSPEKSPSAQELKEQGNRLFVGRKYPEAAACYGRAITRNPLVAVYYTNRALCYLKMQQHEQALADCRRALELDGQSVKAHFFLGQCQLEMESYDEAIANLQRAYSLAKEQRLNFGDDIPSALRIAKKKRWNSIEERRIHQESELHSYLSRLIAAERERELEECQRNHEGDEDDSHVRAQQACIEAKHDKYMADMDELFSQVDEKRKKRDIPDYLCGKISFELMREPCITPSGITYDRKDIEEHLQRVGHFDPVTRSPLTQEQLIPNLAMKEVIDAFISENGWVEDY
Description: Co-immunoprecipitation of HSP70 with CHIP-WT, COS-7. The assay is classed as cell-based. To be noted: Co-IP of MYC-CHIP-WT, vs HSP70-WT and HSP70-T636A, densitometry, Fig. 1I. On the procedure:
as §5
Ezview™ Red Anti-c-Myc Affinity Gel Beads (Sigma-Aldrich) were used for co-immunoprecipitation of myc-tagged proteins. Proteins were eluted via boiling before western blot analysis.

In assay [7] the test system is SmBiT-CHIP-WT. Briefly: NanoBiT live-cell interaction, HEK-293, SmBiT-CHIP-WT. To be noted: HEK-293, CHIP-WT, luminescence over 20 min, three independent transfections, Fig. 1E. The assay is classed as cell-based. As to the method: as §3, §4
In assay [8] the test system is HEK-293 cells. To be noted: HEK-293, electrical impedance; ref [16]; cited from earlier work.
The subject of assay [9] is SmBiT-CHIP-G132N. Description: NanoBiT live-cell interaction, COS-7, SmBiT-CHIP-G132N. In kind it is cell-based. To be noted: COS-7, CHIP-G132N, three independent transfections, Fig. 1F. As to the method: as §3, §4
In assay [10] the test system is SmBiT-CHIP-WT. Description: NanoBiT live-cell interaction, COS-7, SmBiT-CHIP-WT. In kind it is cell-based. To be noted: COS-7, CHIP-WT, three independent transfections, Fig. 1F. As to the method: as §3, §4
For assay [11], the system named is CHIP-WT or CHIP-G132N. Description: Fluorescence polarization, phosphorylated vs unmodified EEVD peptide. The assay is classed as binding. To be noted: FP, CHIP-WT or CHIP-G132N (Fig. 2B).
From the text: as §1, §2

The target of assay [12] is T2, CHIP-G132N (Homo sapiens, UniProt Q9UNE7, G132N).
T2 construct: Recombinant CHIP-TPR constructs were recombinantly expressed using the pHis//2 CHIP-TPR (21–154) plasmid; His; made in house
T2 sequence (Q9UNE7 21-154 G132N): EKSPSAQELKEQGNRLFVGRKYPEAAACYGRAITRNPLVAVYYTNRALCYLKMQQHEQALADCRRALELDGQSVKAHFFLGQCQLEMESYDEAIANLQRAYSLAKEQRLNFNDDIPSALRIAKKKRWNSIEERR
Briefly: Biolayer interferometry, CHIP-G132N TPR. The assay is classed as binding. To be noted: BLI; kon; CHIP-G132N TPR towards pEEVD; Fig. S2. On the procedure:
Bio-layer interferometry measured peptide binding using a BLItz instrument (FortéBio, Sartorius) with streptavidin (SA) sensors. Biotin-EEVD and biotin-pEEVD were solubilized in 20 mM HEPES, 150 mM NaCl, pH 7.0. Affinity measurements were made using the advanced kinetic protocol within the BLItz Pro system software. Biosensors were hydrated for ten minutes in assay buffer comprising 20 mM HEPES, 150 mM NaCl, 5 mM β-mercaptoethanol, pH 7.2. For each affinity measurement, a new, hydrated biosensor was placed on the BLItz tip, and the “Initial Baseline” step was completed by incubation for 30 seconds in 500 μl assay buffer in an opaque black microcentrifuge tube (Argos Technologies). Peptides were loaded during the “Loading Step” by incubating the tip in 4 μl of either peptide for 60 seconds. The “Baseline step” was then conducted by incubation for 30 seconds in 500 μl assay buffer in an opaque black microcentrifuge tube. The “Association step” was performed by incubating the tip in 4 μl of the appropriate TPR protein construct, at protein concentrations of 1 to 25 μM, in assay buffer in an opaque black microcentrifuge tube for 120 seconds. […] Affinities (Kd) were calculated by the BLItz Pro software as Kd=koff/kon, where koff and kon were determined by individual fits to the “dissociation step” and “association step,” respectively, for each run.

Assay [13] has as its target T3, CHIP TPR (residues 21–154) (Homo sapiens, UniProt Q9UNE7).
T3 construct: the extended TPR domain of CHIP (residues 21–154) using BLI; His; made in house
Description: Biolayer interferometry, CHIP TPR (21-154). To be noted: BLI; pEEVD vs EEVD; Fig. 2E. In kind it is binding.
From the text: as §1
Bio-layer interferometry measured peptide binding using a BLItz instrument (FortéBio, Sartorius) with streptavidin (SA) sensors. […] Affinities (Kd) were calculated by the BLItz Pro software as Kd=koff/kon, where koff and kon were determined by individual fits to the “dissociation step” and “association step,” respectively, for each run.

Regarding “N-FITC-Ahx-GSGPTIEEVD [unphosphorylated HSP70 tail peptide used for fluorescent polarization]”, the “EEVD tail interaction, effect of the coiled-coil domain” value in assay [1] is “minimal change”. Also, in assay [2], the “EEVD tail peptide interaction with U-box moved closer to TPR” value is reported as “eliminated EEVD tail peptide interactions”.

Consider “HSP70-T636D: phospho-mimetic version of HSP70”, for which the entries for the “decrease in luminescence compared to HSP70-T636A” value in assay [3] and in assay [7] were 57% and 42%, respectively. The “percent change of HSP70 level from time 0” value in assay [4] (cycloheximide +MG132, 6 h (column from layout)) is on record as “+98%”; in assay [4] (cycloheximide, 6 h, without MG132 (column from layout)) it was -80%. Also, the “loss of HSP70 steady-state level after inhibiting translation” value in assay [5] (cycloheximide 100 μM, six hours, change from time 0, representative immunoblot, Fig. 1J) is 76%. The “HSP70 steady-state level after cycloheximide” value in [5] (cycloheximide, six hours, compared to HSP70-WT and HSP70-T636A, Fig. 1J) is “more robust decreases”. Moreover, the “HSP70 steady-state level with proteasome inhibitor” value in [5] (with MG-132, Fig. 1J) is “recovery of protein levels”. Besides, in assay [6], the “reduction of HSP70 co-precipitated by CHIP-WT” value is “over 90%”. The “effect on cell growth / proliferation” value in assay [8] is given as “no effect”. The figures for the “Δ luminescence comparing HSP70-T636D to HSP70-T636A” value in [9] and in assay [10] were −66% and −85%, respectively.

Consider “N-FITC-Ahx-GSGP(pT)IEEVD [pEEVD, phosphorylated HSP70 tail peptide used for fluorescent polarization]”, for which, in assay [11], the “decrease in interaction compared to the unmodified threonine” value is reported as 6–10 fold. For the same substance, the “association rate” value in assay [12] is on record as “higher association rates”. Also, in assay [13], the “decrease in binding affinity of CHIP TPR towards the phosphorylated EEVD tail” value is around 10 fold.
